# Data: ChEMBL document CHEMBL1158544, “The evaluation of quinonoid compounds against Trypanosoma cruzi: synthesis of imidazolic anthraquinones, nor-beta-lapachone derivatives and beta-lapachone-based 1,2,3-triazoles” (Bioorg Med Chem, 2010)
# Columns and labels:
# Trypanosoma cruzi = experiment: Antitrypanosomal activity against Trypanosoma cruzi Y blood stream trypomastigotes after 24 hrs; format: functional, organism-based
# PBMC = experiment: Cytotoxicity against human PBMC after 72 hrs by alamar blue assay; format: cell-based
SMILES,IC50 (Trypanosoma cruzi),IC50 (PBMC)
CC1(C)OC2=C(C(=O)C(=O)c3ccccc32)[C@H](n2cc(-c3ccc(Br)cc3)nn2)[C@H]1Br,440 µM,2.1 µM
O=C1c2ccccc2C(=O)c2c1ccc1nc(-c3ccc(-c4ccccc4)cc3)[nH]c21,> 4000 µM,12 µM
O=C1c2ccccc2C(=O)c2c1ccc1nc(-c3cccc4ccccc34)[nH]c21,> 4000 µM,2.1 µM
CC1(C)OC2=C(C(=O)C(=O)c3ccccc32)[C@H](n2cc(-c3ccccc3)nn2)[C@H]1Br,313 µM,2.1 µM
CC(C)=CC1=C(O)C(=O)c2ccccc2C1=O,–,2.1 µM
CC1(C)OC2=C(C(=O)C(=O)c3ccccc32)C1OC1CCCCC1 (configuration not stated),558 µM,2.1 µM
CC1(C)OC2=C(C(=O)C(=O)c3ccccc32)C1Nc1ccc(F)c([N+](=O)[O-])c1 (configuration not stated),526 µM,–
O=C1c2ccccc2C(=O)c2c1ccc1nc(-c3ccccc3)[nH]c21,> 2000 µM,12 µM
Cc1ccc(-c2nc3ccc4c(c3[nH]2)C(=O)c2ccccc2C4=O)cc1,> 4000 µM,12 µM
CC(C)=CCC1=C(O)C(=O)c2ccccc2C1=O [LAPACHOL],–,2.1 µM
CC1(C)CCC2=C(O1)c1ccccc1C(=O)C2=O [LAPACHONE],392 µM,2.1 µM
CC1(C)CC2=C(O1)c1ccccc1C(=O)C2=O [NOR-BETA-LAPACHONE],> 4800 µM,2.1 µM

# Further molecules by falling IC50 (Trypanosoma cruzi), results first:
IC50 (Trypanosoma cruzi),SMILES,IC50 (PBMC)
284 µM,Cc1ccc([N+](=O)[O-])cc1NC1C2=C(OC1(C)C)c1ccccc1C(=O)C2=O (configuration not stated),12 µM
268 µM,CC(C)OC1C2=C(OC1(C)C)c1ccccc1C(=O)C2=O (configuration not stated),2.1 µM
248 µM,CC1(C)OC2=C(C(=O)c3ccccc3C2=O)[C@@H](N=[N+]=[N-])[C@@H]1Br,2.1 µM
233 µM,CC(C)=CCC1=C(OC2(CC=C(C)C)C(=O)C(=O)c3ccccc3C2=O)C(=O)c2ccccc2C1=O (configuration not stated),12 µM
220 µM,CC1(C)OC2=C(C(=O)C(=O)c3ccccc32)[C@H](n2cc(-c3ccc(F)cc3)nn2)[C@H]1Br,2.1 µM
156 µM,Cc1cc([N+](=O)[O-])ccc1NC1C2=C(OC1(C)C)c1ccccc1C(=O)C2=O (configuration not stated),2.1 µM
106 µM,COc1ccc(-c2cn([C@H]3C4=C(OC(C)(C)[C@@H]3Br)c3ccccc3C(=O)C4=O)nn2)cc1,2.1 µM
59.6 µM,COc1ccc(NC2C3=C(OC2(C)C)c2ccccc2C(=O)C3=O)c([N+](=O)[O-])c1 (configuration not stated),2.1 µM
55.6 µM,CC1(C)OC2=C(C(=O)C(=O)c3ccccc32)C1Nc1ccccc1[N+](=O)[O-] (configuration not stated),2.1 µM
47.2 µM,CC(C)COC1C2=C(OC1(C)C)c1ccccc1C(=O)C2=O (configuration not stated),2.1 µM
43.8 µM,CC1(C)OC2=C(C(=O)C(=O)c3ccccc32)C1Nc1ccc(Cl)c(Cl)c1 (configuration not stated),2.1 µM
24.9 µM,CC1(C)OC2=C(C(=O)C(=O)c3ccccc32)C1Nc1ccc(Br)cc1Br (configuration not stated),2.1 µM
23.4 µM,CC1(C)OC2=C(C(=O)C(=O)c3ccccc32)[C@H](N=[N+]=[N-])[C@H]1Br,2.1 µM
